One test relates to adrenergic α1 receptor. The test is described as follows: Binding assay α1 (non-selective), [3H]prazosin, rat cerebral cortex. Particulars: percent inhibition of control specific binding; compounds tested at 1×10^−6 M. Summed up:
(§1)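 Scintillation counting detects receptor-bound radioligand. Compound tested at 1×10^−6 M.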

Test [1] has as its target histaminergic H1 receptor (Homo sapiens, UniProt P35367). The test is described as follows: Cellular functional assay, histaminergic H1 receptor (agonism/antagonism). The conditions noted are these: for activation at 1 µM: read-out: H1 -ag [%]; for inhibition at 1 µM: read-out: H1 -antag. [%]. In kind it is cell-based. As for the experimental part: (§2) The compounds were tested at the concentration of 1×10^−6M.
(§3) In the Tables ag refers to agonism, and antag to antagonism).

The target of test [2] is T1, serotonine transporter (SERT) receptor (Homo sapiens, UniProt P31645).
T1 construct: expressed in transfected cells; host or cells: CHO cells
T1 sequence (P31645 whole entry): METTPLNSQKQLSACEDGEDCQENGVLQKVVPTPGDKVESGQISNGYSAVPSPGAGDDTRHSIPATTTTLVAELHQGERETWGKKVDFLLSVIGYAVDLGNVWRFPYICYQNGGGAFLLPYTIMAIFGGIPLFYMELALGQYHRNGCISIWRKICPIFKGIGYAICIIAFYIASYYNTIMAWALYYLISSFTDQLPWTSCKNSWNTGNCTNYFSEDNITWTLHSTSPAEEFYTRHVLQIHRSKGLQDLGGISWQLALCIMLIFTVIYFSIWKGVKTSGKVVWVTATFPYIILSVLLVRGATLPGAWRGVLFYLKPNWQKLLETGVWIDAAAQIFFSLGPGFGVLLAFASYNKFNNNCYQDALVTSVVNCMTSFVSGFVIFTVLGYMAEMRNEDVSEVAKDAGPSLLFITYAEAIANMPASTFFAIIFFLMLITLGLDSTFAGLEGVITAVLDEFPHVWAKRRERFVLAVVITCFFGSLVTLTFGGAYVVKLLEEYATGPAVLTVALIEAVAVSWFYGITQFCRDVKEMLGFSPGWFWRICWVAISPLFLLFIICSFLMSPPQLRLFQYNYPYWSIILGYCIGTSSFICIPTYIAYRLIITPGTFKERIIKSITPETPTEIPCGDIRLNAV
The test is described as follows: Binding assay SERT (h), [3H]imipramine, CHO cells. Particulars: read-out: SERT [%]. Summed up:
as §1

The target of test [3] is T2, serotoninergic 5-HT6 receptor (Homo sapiens, UniProt P50406). The test is described as follows: Cellular functional assay, serotoninergic 5-HT6 receptor (agonism/antagonism). The format is cell-based. Particulars: for activation at 1 µM: read-out: 5-HT6-ag [%]; for inhibition at 1 µM: read-out: 5-HT6-antag. [%]. How it is done:
as §2, §3

Test [4] concerns the target T3, dopaminergic D3 receptor (Homo sapiens, UniProt P35462). The test is described as follows: Cellular functional assay, dopaminergic D3 receptor (agonism/antagonism). The format is cell-based. As for the experimental part:
as §2, §3

Test [5] deals with T4, serotoninergic 5-HT1A receptor (Homo sapiens, UniProt P08908).
T4 sequence (P08908 1-422): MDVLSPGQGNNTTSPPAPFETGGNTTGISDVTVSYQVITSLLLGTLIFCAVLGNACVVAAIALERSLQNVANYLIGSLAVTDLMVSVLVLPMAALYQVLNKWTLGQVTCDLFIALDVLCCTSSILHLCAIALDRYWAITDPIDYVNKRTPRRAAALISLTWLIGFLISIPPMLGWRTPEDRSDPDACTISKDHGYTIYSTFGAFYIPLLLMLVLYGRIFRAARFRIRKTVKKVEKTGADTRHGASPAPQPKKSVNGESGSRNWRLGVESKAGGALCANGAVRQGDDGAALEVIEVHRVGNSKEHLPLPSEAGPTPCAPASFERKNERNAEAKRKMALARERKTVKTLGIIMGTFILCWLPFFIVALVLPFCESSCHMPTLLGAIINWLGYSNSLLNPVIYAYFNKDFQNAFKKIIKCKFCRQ
Briefly: Cellular functional assay, serotoninergic 5-HT1A receptor (agonism/antagonism). In kind it is cell-based. How it is done: as §2, §3

The target in test [6] is serotoninergic 5-HT7 receptor (Homo sapiens, UniProt P34969). Briefly: Binding assay 5-HT7 (h), [3H]LSD, CHO cells. The arrangement: expressed in transfected cells; host or cells: CHO cells. Particulars: read-out: 5-HT7. The gist of the method:
as §1

The target of test [7] is T5, serotoninergic 5-HT2A receptor (Homo sapiens, UniProt P28223). Briefly: Binding assay 5-HT2A (h), [3H]ketanserin, HEK-293 cells. Also noted: expressed in transfected cells; host or cells: HEK-293 cells. Particulars: read-out: 5-HT2A. Summed up:
as §1

For test [8], the target named is T2, serotoninergic 5-HT6 receptor. The test is described as follows: Binding assay 5-HT6 (h), [3H]LSD, CHO cells. Also noted: expressed in transfected cells; host or cells: CHO cells. Particulars: read-out: 5-HT6. The gist of the method:
as §1

Test [9] concerns the target T3, dopaminergic D3 receptor. Briefly: Binding assay D3 (h), [3H]methyl-spiperone, CHO cells. Also noted: expressed in transfected cells; host or cells: CHO cells. Particulars: read-out: D3 [%]. Summed up:
as §1

For test [10], the target named is T6, serotoninergic receptor 5-HT2C (Homo sapiens, UniProt P28335).
T6 construct: expressed in transfected cells; host or cells: HEK-293 cells
T6 sequence (P28335 33-458): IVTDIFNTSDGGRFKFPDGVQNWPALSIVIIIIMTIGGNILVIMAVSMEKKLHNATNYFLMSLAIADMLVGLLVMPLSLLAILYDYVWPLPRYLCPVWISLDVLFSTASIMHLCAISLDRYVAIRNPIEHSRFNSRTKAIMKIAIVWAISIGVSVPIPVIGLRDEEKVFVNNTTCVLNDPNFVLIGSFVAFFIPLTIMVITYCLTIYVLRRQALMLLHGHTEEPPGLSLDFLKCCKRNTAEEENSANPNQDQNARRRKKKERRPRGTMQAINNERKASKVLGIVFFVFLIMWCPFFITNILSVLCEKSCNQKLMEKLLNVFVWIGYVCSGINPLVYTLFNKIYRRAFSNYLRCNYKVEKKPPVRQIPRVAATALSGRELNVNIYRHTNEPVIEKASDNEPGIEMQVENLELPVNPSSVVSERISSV
The test is described as follows: Binding assay 5-HT2C (h), [3H]mesulergine, HEK-293 cells. The conditions noted are these: read-out: 5-HT2C [%]. The gist of the method:
as §1

In test [11] the target is T5, serotoninergic 5-HT2A receptor. Briefly: Cellular functional assay, serotoninergic 5-HT2A receptor (agonism/antagonism). The format is cell-based. The conditions noted are these: for activation at 1 µM: read-out: 5-HT2A -ag [%]; for inhibition at 1 µM: read-out: 5-HT2A -antag [%]. The gist of the method:
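Human receptors tested in cell-based functional format for both agonist and antagonist modes. Single compound concentration of 1×10^−6M.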

[12] abbreviates: agonist effect, percent of control specific agonist response, compounds tested at 1×10^−6M.
Setting [13] is: agonist effect, percent of control specific agonist response (300 nM dopamine for control); 1×10^−6 M; D3 (h), CHO cells; read-out: D3-ag [%].
Where [14] appears, read: CHO; read-out: 5-HT1A-antag. [%].
Setting [15] is: agonist effect, percent of control specific agonist response (100 nM 8-OH-DPAT for control); 1×10^−6 M; 5-HT1A (h), CHO cells; read-out: 5-HT1A-ag [%].

Read-outs that look alike come from different tables or passages of the source.

Chain of serotoninergic 5-HT7 receptor (P34969 whole entry): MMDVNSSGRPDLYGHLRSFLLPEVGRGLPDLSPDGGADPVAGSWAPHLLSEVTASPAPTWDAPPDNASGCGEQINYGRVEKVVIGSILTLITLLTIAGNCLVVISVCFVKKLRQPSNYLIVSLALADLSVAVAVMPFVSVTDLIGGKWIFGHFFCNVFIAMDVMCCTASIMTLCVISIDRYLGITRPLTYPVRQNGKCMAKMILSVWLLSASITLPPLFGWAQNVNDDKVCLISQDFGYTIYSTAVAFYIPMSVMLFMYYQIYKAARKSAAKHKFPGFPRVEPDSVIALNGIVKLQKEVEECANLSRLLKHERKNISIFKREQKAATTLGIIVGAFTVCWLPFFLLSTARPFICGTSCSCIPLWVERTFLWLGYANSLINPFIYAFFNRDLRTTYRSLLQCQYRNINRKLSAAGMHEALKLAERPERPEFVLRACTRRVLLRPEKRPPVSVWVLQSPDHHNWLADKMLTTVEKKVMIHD
T5 sequence (P28223 whole entry): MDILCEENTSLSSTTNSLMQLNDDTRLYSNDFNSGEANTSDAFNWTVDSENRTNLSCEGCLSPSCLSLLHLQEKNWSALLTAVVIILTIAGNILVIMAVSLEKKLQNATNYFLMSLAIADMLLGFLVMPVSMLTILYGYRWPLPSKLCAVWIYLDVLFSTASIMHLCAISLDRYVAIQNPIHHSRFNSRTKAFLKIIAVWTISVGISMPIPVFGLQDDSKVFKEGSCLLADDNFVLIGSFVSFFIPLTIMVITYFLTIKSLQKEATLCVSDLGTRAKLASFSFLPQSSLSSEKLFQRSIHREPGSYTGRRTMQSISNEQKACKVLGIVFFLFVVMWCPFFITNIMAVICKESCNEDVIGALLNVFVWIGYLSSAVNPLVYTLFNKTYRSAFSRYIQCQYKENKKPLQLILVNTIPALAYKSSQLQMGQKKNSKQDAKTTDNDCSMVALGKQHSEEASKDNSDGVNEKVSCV
T2 sequence (P50406 whole entry): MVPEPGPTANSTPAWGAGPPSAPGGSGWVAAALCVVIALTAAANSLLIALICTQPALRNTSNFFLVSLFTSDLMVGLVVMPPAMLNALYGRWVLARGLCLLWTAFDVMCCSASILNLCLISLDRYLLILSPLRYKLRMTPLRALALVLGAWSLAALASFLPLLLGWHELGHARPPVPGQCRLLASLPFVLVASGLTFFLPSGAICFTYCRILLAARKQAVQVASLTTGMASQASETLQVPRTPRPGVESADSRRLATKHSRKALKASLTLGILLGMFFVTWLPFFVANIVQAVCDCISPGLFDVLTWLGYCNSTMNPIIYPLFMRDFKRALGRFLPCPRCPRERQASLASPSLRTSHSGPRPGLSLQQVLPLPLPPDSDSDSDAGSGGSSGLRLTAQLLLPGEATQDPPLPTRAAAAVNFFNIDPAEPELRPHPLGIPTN
Chain of histaminergic H1 receptor (P35367 whole entry): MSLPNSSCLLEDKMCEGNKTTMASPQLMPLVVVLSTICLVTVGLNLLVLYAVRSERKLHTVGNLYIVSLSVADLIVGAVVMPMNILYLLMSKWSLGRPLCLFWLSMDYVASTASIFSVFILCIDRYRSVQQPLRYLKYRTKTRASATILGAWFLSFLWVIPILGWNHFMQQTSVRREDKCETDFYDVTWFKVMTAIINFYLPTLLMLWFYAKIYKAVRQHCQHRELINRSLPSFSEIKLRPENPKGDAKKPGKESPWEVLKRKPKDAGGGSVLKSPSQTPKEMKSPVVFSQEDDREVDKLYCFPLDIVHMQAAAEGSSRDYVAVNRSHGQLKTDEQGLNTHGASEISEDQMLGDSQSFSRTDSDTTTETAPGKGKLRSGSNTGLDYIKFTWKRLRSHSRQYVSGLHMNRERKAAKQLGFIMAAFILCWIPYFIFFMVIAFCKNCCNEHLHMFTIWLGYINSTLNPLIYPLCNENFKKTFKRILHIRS
T3 sequence (P35462 whole entry): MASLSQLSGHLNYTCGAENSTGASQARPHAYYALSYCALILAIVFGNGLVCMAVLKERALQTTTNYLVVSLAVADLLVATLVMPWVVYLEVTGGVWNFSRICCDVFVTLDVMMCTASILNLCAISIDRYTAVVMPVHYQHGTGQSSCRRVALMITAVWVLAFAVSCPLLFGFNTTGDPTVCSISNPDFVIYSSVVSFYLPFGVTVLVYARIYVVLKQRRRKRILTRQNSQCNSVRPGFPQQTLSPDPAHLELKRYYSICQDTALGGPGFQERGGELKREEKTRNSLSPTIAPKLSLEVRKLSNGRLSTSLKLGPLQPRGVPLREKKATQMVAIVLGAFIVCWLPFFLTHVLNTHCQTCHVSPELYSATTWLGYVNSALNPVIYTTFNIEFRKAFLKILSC

For `O=S(=O)(NCCCCN1CCN(c2nsc3ccccc23)CC1)c1ccc2ccccc2c1` [Compound 2, N-(4-(4-(1,2-Benzothiazol-3-yl)piperazin-1-yl)butyl)naphthalene-2-sulphonamide], the “α1 [%]” value with adrenergic α1 receptor was 97%. Moreover, the activation at 1 µM in [1] was -1%; in test [3], 2%; at dopaminergic D3 receptor [4] (CHO, read-out: D3-ag [%]), -15%; in test [5] (CHO, read-out: 5-HT1A-ag [%]) it was 47%; in test [11], 2%. In addition, the inhibition at 1 µM in [1] was determined as 48%; in test [2], 69%; in test [3], 28%; on dopaminergic D3 receptor [4] (CHO, read-out: D3-antag. [%]) it was 81%; in test [5] (CHO, read-out: 5-HT1A-antag. [%]), 18%; in [6], 97%. Also, the inhibition at 1 µM in test [7] came to 100%; in test [8] it was 97%; on dopaminergic D3 receptor [9], 100%; in test [10], 89%; in test [11] it was 102%.
Take `Cc1cccc(S(=O)(=O)NCCCN2CCN(c3nsc4ccccc34)CC2)c1` [Compound 7, N-(3-(4-(1,2-Benzothiazol-3-yl)piperazin-1-yl)propyl)-3-methylbenzenesulphonamide]: in the test with adrenergic α1 receptor, the “α1 [%]” value stood at 98%. Besides, the activation at 1 µM in [1] (setting [12]) is 1%; in [3] (setting [12]), 1%; at dopaminergic D3 receptor [4] (setting [13]), -21%; in test [5] (setting [15]), 59%; in test [11] it was 0%. The inhibition at 1 µM in [1] is 70%; in [2], 88%; in test [3], 65%; at dopaminergic D3 receptor [4] (CHO; read-out: D3-antag. [%]), 66%; in test [5] (setting [14]), 51%; in [6] it was 97%. Also, the inhibition at 1 µM in test [7] was determined as 100%; in [8], 98%; on dopaminergic D3 receptor [9], 97%; in test [10], 89%; in [11], 100%.
As to `O=c1[nH]c2ccc(S(=O)(=O)NCCCN3CCN(c4nsc5ccccc45)CC3)cc2o1` [Compound 8, N-(3-(4-(1,2-Benzothiazol-3-yl)piperazin-1-yl)propyl)-2-oxo-3H-1,3-benzoxazole-6-sulphonamide], the “α1 [%]” value with adrenergic α1 receptor was 94%. For the same compound, the activation at 1 µM in [1] (setting [12]) is 1%; in [3] (setting [12]), -1%; at dopaminergic D3 receptor [4] (setting [13]), -24%; in [5] (setting [15]) it was 14%; in test [11], -2%. Moreover, the inhibition at 1 µM is 98% in [1]; 63% in [2]; 64% in test [3]; 73% on dopaminergic D3 receptor [4] (CHO; read-out: D3-antag. [%]); 81% in [5] (setting [14]); 97% in test [6]. Further, the inhibition at 1 µM in test [7] was found to be 100%; in [8], 91%; at dopaminergic D3 receptor [9] it was 97%; in [10], 90%; in test [11] it was 99%.
As to `O=S(=O)(NCCCCN1CCN(c2nsc3ccccc23)CC1)c1ccc2cc(Cl)ccc2c1` [Compound 61, N-[4-[4-(1,2-Benzothiazol-3-yl)piperazin-1-yl]butyl]-6-chloro-naphthalene-2-sulphonamide], the “α1 [%]” value in the test on adrenergic α1 receptor came to 94%. For the same compound, the activation at 1 µM is 1% in test [1] (setting [12]); -2% in test [3] (setting [12]); 4% at dopaminergic D3 receptor [4] (setting [13]); 75% in test [5] (setting [15]); 0% in test [11]. Further, the inhibition at 1 µM in [1] was 76%; in test [2], 55%; in [3], 72%; at dopaminergic D3 receptor [4] (CHO; read-out: D3-antag. [%]), 45%; in test [5] (setting [14]) it was 20%; in test [6] it was 100%. Also, the inhibition at 1 µM was determined as 100% in [7]; 96% in test [8]; 96% at dopaminergic D3 receptor [9]; 95% in test [10]; 97% in test [11].
As to `Cc1c(S(=O)(=O)NCCCCN2CCN(c3nsc4ccccc34)CC2)sc2ccc(F)cc12` [Compound 65, N-[4-[4-(1,2-Benzothiazol-3-yl)piperazin-1-yl]butyl]-5-fluoro-3-methylbenzothiophene-2-sulphonamide], in the test on adrenergic α1 receptor, the “α1 [%]” value is recorded as 95%. For the same compound, the activation at 1 µM in test [1] (setting [12]) is 0%; in [3] (setting [12]), -1%; in [5] (setting [15]) it was 9%; in test [11], -2%. For the same compound, the inhibition at 1 µM stood at 60% in [1]; 57% in test [2]; 81% in test [3]; 35% in [5] (setting [14]); 98% in test [6]; 101% in [7]. The inhibition at 1 µM in test [8] was found to be 97%; on dopaminergic D3 receptor [9] it was 74%; in [10] it was 95%; in test [11] it was 98%.
Take `Cc1c(S(=O)(=O)NCCCCN2CCN(c3noc4ccccc34)CC2)sc2ccc(F)cc12` [Compound 81, N-[4-[4-(1,2-Benzoxazol-3-yl)piperazin-1-yl]butyl]-5-fluoro-3-methylbenzothiophene-2-sulphonamide]: the “α1 [%]” value in the test on adrenergic α1 receptor stood at 96%. Further, the activation at 1 µM in [1] (setting [12]) was 1%; in test [3] (setting [12]), 1%; on dopaminergic D3 receptor [4] (setting [13]) it was -10%; in test [5] (setting [15]), 5%; in test [11] it was -1%. The inhibition at 1 µM in [1] worked out at 38%; in test [2] it was 28%; in [3] it was 88%; at dopaminergic D3 receptor [4] (CHO; read-out: D3-antag. [%]) it was 76%; in [5] (setting [14]), 22%; in test [6], 99%. Further, the inhibition at 1 µM in test [7] stood at 101%; in [8] it was 98%; on dopaminergic D3 receptor [9] it was 97%; in [10], 50%; in [11], 95%.

These data come from patent publication US8822517B2, “Arylosulfonamides for the treatment of CNS diseases” (Adamed SP. Z O.O., priority 2010, dated 2014).
